Test results as given in patent US9249147B2, “Tyrosine kinase inhibitors” (CHEMBRIDGE CORPORATION, priority 2008, dated 2016).
Several values for one entry are separate records, joined by “and”; a condition that tells them apart may be missing. Identical values can stand only once. Like-named read-outs stand apart in the source and are kept apart here.

What was measured:
Fer = molecular target: T1, Fer (Homo sapiens, UniProt P16591); assay: Invitrogen SelectScreen Z-lyte kinase assay, Fer; type: biochemical
T1 construct: purchased Invitrogen

CYP2D6 = molecular target: T2, CYP2D6 (Homo sapiens, UniProt P10635); assay: CYP2D6 Inhibition (recombinant, MFC substrate); type: in vitro ADME
T2 construct: purchased Cerep (contract assay, ADMET Study 13170)

Src = molecular target: T3, Src (Homo sapiens, UniProt P12931); assay: Invitrogen SelectScreen Z-lyte kinase assay, Src; type: biochemical
T3 construct: purchased Invitrogen

[1] = Pharmacokinetics study in CD-1 mice (IV, PO); type: in vivo; details: IV 1 mg/kg, time point 0.35, individual animals A-D
ALK = ALK (Homo sapiens, UniProt Q9UM73); assay: Invitrogen SelectScreen Z-lyte kinase assay, ALK; type: biochemical; parameters: purchased Invitrogen (SelectScreen service); details: 100 μM ATP
Experimental: (§1) To evaluate selectivity versus other kinases, inhibition of various kinases by compound (II) was determined. In particular, IC50s for TrkA, Jak2, Axl tyrosine kinases were determined using ADP Hunter (DiscoverX) kinase assay. Single point profiling of compound (II) on 50 human tyrosine kinases and 10 Ser-Thr kinases was done at Upstate/Millipore by radiometric assay. […] The subset of the 520 kinases in the human kinome that were tested was strategically selected to cover most of the therapeutically relevant tyrosine kinases and to represent major branches of serine-threonine kinases.
(§2) Compound (II) was a multitargeted tyrosine kinase (TK) inhibitor with a distinct pattern of inhibition focused on ALK, Trk family, Ros and Ret kinases. Invitrogen SelectScreen (Z-lyte assay) produced the following IC5O values for this set of kinases: ALK 9.75 nM, TrkA 1.5 nM, TrkB 1.4 nM, TrkC 1.8 nM, Ret 7.1 nM, Ros 1.8 nM (all measured at 100 μM ATP). […] About 70% of the 50 TKs tested have selectivity in excess of 50-fold for ALK and higher for Ret, Ros and Trk family members.

[2] = Pharmacokinetics study in CD-1 mice (IV, PO); type: in vivo; details: for MRT inf: read-out: MRT(0-∞); for concentration at 4 h: time point 4, Mean
Experimental: A comprehensive PK study was run in CD-1 strain of mice with IV (1 mg/kg) and PO (5 mg/kg) routes of drug delivery and analytical data collection at 10 time points over 24 hours (Medicilon, Study CRL0703).
Blood samples were collected by removing the eyeballs at pre-dose and 0.083, 0.25, 0.5, 1, 2, 4, 6, 8, and 24 hours post-dose. The plasma samples and the dose formulation were stored at −20° C. until bioanalysis.

10 Ser-Thr kinases = assay: Single point radiometric profiling on Ser-Thr kinases (Upstate/Millipore); type: biochemical; details: 50 nM compound
Experimental: as §1

TrkC = molecular target: T4, TrkC (Homo sapiens, UniProt Q16288); assay: Invitrogen SelectScreen Z-lyte kinase assay, TrkC; type: biochemical; details: 100 μM ATP
T4 construct: purchased Invitrogen (SelectScreen service)
Experimental: as §1, §2

[3] = test system: non-ALKdependent cell lines; assay: Cell proliferation inhibition, non-ALK-dependent control cell lines; type: cell-based; details: 12 unrelated cell lines; read-out: Lowest IC50s for non-ALK-dependent cell lines
From the text: Cell proliferation inhibition assays were run for compound (II) with the five target NPM-ALK-dependent ALCL cell lines (Karpas 299, SuDHL-1, JB6, SupM2, UConn) and 12 unrelated cell lines (HEK293, CHO-K1, MCF7, HepG2, H292, H520, H1581, H596, H522, CHA-GO-K1, UMC-11, SK-MES1). […] The pronounced target cell-killing effect is also observed (molecular mechanisms to be determined).

hERG = hERG (Homo sapiens, UniProt Q12809); assay: hERG standard patch clamp in HEK293 (Cerep ADMET Study 13170); type: cell-based; details: 1 μM
Experimental: The cardiac potassium channel, hERG, is responsible for the rapid delayed rectifier current (IKr) in the human ventricle. Inhibition of IKr is the most common cause of cardiac action potential prolongation by noncardiac drugs. Increased action potential duration causes prolongation of the QT interval that has been associated with a dangerous ventricular arrhythmia, torsade de pointer.
Compound (II) was initially tested at 1 μM concentration using a standard patch clamp protocol (Cerep ADMET Study 13170). The hERG channel was expressed in a human embryonic kidney (HEK293) cell line that lacks endogenous hERG channels. […] We have retested compound (II) in hERG assay in a range of lower concentrations to estimate IC50 of hERG inhibition more precisely (Qpatch 16 automated whole-cell patch clamp protocol in CHO-K1 cell line stably expressing hERG, Cerep hERG Study 13292). […] This kind of potency in hERG inhibition should not represent a significant clinical problem since the high degree of hERG inhibition would occur only at the compound concentrations above the expected therapeutic levels.

[4] = CD-1, mouse, plasma, iv, 1 mg/kg, IV 1 mg/kg, CD-1 mice, Mean
[5] = CD-1, mouse, plasma, iv, 1 mg/kg, IV 1 mg/kg, individual animals A-D
[6] = IV 1 mg/kg, individual animals A-D, 1 mg/kg

T2 sequence (P10635 whole entry): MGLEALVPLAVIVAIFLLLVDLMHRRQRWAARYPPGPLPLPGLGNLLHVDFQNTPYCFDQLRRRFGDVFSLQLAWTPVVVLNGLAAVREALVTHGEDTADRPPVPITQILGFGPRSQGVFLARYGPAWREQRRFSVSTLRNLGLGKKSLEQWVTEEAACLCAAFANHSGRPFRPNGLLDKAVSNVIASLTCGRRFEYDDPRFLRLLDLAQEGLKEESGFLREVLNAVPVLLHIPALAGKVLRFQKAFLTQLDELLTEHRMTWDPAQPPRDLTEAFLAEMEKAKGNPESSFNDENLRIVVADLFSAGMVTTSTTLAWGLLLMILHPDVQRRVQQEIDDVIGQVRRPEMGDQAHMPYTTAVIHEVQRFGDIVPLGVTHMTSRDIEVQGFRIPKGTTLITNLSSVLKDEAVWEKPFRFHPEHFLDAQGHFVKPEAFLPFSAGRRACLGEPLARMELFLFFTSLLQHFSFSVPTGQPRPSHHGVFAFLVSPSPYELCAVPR
T3 sequence (P12931 whole entry): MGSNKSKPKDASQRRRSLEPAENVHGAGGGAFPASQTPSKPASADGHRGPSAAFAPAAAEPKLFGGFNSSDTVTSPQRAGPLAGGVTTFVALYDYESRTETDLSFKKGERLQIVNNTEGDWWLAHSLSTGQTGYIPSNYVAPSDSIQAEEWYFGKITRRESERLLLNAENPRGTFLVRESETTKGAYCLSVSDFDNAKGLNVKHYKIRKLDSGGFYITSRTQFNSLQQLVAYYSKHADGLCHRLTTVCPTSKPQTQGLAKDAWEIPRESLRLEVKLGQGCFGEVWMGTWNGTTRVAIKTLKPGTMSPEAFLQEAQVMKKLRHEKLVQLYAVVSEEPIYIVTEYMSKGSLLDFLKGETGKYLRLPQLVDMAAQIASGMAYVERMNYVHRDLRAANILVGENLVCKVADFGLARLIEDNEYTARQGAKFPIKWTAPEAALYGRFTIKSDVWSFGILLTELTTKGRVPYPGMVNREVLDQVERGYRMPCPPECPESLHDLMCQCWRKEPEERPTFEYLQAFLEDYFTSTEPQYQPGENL
T4 sequence (Q16288 32-839): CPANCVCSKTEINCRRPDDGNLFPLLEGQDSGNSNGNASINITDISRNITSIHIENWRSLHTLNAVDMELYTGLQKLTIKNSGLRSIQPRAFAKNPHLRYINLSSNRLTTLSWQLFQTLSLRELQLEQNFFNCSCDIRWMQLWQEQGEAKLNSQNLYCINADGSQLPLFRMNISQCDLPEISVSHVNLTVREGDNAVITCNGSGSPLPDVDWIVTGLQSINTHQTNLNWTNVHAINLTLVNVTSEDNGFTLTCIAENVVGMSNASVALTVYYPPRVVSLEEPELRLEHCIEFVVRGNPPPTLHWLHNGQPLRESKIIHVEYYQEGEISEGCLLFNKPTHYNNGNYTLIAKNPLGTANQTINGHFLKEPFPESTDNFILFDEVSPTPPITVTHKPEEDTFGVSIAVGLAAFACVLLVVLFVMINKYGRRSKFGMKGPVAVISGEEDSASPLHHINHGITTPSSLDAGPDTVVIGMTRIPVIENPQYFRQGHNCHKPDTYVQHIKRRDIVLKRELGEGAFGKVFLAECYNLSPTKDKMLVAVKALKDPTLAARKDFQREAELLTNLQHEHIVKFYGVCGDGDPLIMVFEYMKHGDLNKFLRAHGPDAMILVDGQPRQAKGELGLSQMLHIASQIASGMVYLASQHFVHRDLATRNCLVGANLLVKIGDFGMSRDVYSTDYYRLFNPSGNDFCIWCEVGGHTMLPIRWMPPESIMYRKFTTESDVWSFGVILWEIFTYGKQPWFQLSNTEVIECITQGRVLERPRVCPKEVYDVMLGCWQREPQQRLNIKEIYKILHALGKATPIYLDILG
T1 sequence (P16591 whole entry): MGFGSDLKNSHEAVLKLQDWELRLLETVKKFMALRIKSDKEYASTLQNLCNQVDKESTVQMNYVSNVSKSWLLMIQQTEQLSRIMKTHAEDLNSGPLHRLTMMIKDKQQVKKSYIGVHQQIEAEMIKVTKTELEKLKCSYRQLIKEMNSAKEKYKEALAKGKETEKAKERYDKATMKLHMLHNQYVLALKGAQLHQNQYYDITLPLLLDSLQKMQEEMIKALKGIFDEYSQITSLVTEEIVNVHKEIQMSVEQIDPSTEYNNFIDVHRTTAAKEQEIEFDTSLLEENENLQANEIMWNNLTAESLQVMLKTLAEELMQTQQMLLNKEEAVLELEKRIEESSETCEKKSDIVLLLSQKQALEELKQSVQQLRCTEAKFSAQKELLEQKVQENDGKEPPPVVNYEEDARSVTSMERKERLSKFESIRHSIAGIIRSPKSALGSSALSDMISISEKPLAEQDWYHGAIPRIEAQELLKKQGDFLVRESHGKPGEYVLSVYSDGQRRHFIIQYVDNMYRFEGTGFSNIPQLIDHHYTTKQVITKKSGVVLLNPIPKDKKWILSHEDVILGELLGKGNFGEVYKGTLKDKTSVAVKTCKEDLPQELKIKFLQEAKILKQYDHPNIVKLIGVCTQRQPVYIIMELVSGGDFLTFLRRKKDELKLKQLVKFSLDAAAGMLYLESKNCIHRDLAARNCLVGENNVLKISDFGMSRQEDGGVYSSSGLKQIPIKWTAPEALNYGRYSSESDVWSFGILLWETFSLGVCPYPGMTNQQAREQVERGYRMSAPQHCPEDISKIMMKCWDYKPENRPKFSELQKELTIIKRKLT
hERG, sequence (Q12809 whole entry): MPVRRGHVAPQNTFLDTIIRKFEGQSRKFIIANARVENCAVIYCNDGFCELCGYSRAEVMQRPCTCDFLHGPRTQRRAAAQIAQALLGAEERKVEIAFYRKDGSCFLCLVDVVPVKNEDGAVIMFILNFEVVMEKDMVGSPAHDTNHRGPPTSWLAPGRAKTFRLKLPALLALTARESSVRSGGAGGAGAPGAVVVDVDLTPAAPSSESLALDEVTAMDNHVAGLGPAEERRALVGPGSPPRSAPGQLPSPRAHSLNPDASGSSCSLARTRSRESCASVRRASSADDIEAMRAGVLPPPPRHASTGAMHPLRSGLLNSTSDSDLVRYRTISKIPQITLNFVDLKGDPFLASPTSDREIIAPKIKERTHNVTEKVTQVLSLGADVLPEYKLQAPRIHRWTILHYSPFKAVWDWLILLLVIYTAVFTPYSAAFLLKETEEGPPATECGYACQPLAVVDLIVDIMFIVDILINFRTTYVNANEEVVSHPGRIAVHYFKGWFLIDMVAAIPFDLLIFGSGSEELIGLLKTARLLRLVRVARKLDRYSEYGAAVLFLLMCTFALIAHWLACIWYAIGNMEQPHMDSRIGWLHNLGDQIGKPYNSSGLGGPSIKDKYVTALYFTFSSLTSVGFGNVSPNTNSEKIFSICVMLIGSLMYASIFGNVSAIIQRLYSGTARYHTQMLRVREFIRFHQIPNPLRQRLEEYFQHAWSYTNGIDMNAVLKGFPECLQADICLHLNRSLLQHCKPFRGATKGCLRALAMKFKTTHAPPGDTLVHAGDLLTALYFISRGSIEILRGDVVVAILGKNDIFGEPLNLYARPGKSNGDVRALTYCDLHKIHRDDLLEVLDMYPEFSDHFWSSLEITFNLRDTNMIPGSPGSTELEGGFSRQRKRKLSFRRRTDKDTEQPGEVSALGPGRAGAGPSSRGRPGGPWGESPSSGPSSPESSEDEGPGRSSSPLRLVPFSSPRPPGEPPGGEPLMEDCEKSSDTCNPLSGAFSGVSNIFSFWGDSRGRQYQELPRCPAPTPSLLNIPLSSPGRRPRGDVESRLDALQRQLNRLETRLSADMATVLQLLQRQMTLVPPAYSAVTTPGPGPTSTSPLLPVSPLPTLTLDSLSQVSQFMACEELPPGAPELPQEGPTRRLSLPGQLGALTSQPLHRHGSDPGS

## Cc1ccc(F)cc1C[C@H](C)Nc1cc[nH]c(=O)c1-c1nc2cc3c(cc2[nH]1)C(=O)N(CCN1CCCC1)C3 [compound (II)]
Fer
  IC50: 42 nM
CYP2D6; 1 μM and 5 μM
  CYP2D6 inhibition: No inhibition was detected
CYP2D6; human, recombinant CYP2D6, probe MFC, 1.0E−06 M, Table 5B individual results, read-out: CYP2D6 % Inhibition of Control Values, 1st/2nd/3rd
  activity at 1 µM: 101%
CYP2D6; human, recombinant CYP2D6, probe MFC, 5.0E−06 M, Table 5B individual results, read-out: CYP2D6 % Inhibition of Control Values, 1st/2nd/3rd
  activity at 5 µM: 84.9%
CYP2D6; human, recombinant CYP2D6, probe MFC, 1.0E−06 M, read-out: CYP2D6 % Inhibition of Control Values
  inhibition at 1 µM: 2%
CYP2D6; human, recombinant CYP2D6, probe MFC, 5.0E−06 M, read-out: CYP2D6 % Inhibition of Control Values
  inhibition at 5 µM: 16%
Src
  IC50: 32 nM
[1]
  Plasma Concentration: 100.41 ng/mL and 89.28 ng/mL and 41.61 ng/mL and 64.53 ng/mL
ALK
  IC50: 9.75 nM
[2]; [4]
  AUC(0-inf): 105 ng·h/mL
  Tmax: 4.8 min
  MRT inf: 1.36 h
[2]; CD-1, mouse, plasma, iv, 1 mg/kg, IV 1 mg/kg, CD-1 mice, Mean, read-out: AUC(0-t)
  AUC(0-t): 102 ng·h/mL
[2]; CD-1, mouse, plasma, iv, 1 mg/kg, IV 1 mg/kg, CD-1 mice, Mean, read-out: Cmax
  Cmax: 186 ng/mL
[2]; [5]
  AUC(0-inf): 102 ng·h/mL
  Tmax: 4.98 min
  MRT inf: 1.37 h
[2]; CD-1, mouse, plasma, iv, 1 mg/kg, IV 1 mg/kg, individual animals A-D, read-out: AUC(0-t)
  AUC(0-t): 100 ng·h/mL
[2]; CD-1, mouse, plasma, iv, 1 mg/kg, IV 1 mg/kg, individual animals A-D, read-out: Cmax
  Cmax: 248 ng/mL
[2]; CD-1, mouse, plasma, iv, 1 mg/kg, IV 1 mg/kg, time point 0.083, Mean
  concentration at […]: 186 ng/mL
[2]; CD-1, mouse, plasma, iv, 1 mg/kg, IV 1 mg/kg, time point 0.083, individual animals A-D
  concentration at […]: 163 ng/mL
[2]; CD-1, mouse, plasma, iv, 1 mg/kg, IV 1 mg/kg, time point 0.35, Mean
  concentration at […]: 74 ng/mL
[2]; CD-1, mouse, plasma, iv, 1 mg/kg, IV 1 mg/kg, time point 0.5, Mean
  concentration at 0.5 h: 32.9 ng/mL
[2]; CD-1, mouse, plasma, iv, 1 mg/kg, IV 1 mg/kg, time point 0.5, individual animals A-D
  concentration at 0.5 h: 36.8 ng/mL
[2]; CD-1, mouse, plasma, iv, 1 mg/kg, IV 1 mg/kg, time point 1, Mean
  concentration at 1 h: 18.9 ng/mL
[2]; CD-1, mouse, plasma, iv, 1 mg/kg, IV 1 mg/kg, time point 1, individual animals A-D
  concentration at 1 h: 14.1 ng/mL
[2]; CD-1, mouse, plasma, iv, 1 mg/kg, IV 1 mg/kg, time point 2, Mean
  concentration at 2 h: 10.2 ng/mL
[2]; CD-1, mouse, plasma, iv, 1 mg/kg, IV 1 mg/kg, time point 2, individual animals A-D
  concentration at 2 h: 10.4 ng/mL
[2]; CD-1, mouse, plasma, iv, 1 mg/kg, IV 1 mg/kg
  concentration at 4 h: 5.05 ng/mL
[2]; CD-1, mouse, plasma, iv, 1 mg/kg, IV 1 mg/kg, time point 6, Mean
  concentration at 6 h: 2.18 ng/mL
[2]; CD-1, mouse, plasma, iv, 1 mg/kg, IV 1 mg/kg, time point 6, individual animals A-D
  concentration at 6 h: 2.13 ng/mL
[2]; CD-1, mouse, plasma, po, 5 mg/kg, PO 5 mg/kg, time point 0.083, Mean
  concentration at […]: 1.24 ng/mL
[2]; CD-1, mouse, plasma, po, 5 mg/kg, PO 5 mg/kg, time point 0.083, individual animals A-D
  concentration at […]: 2.07 ng/mL
[2]; CD-1, mouse, plasma, po, 5 mg/kg, PO 5 mg/kg, time point 0.35, individual animals A-D
  concentration at […]: 1.21 ng/mL
[2]; CD-1, mouse, plasma, po, 5 mg/kg, PO 5 mg/kg, time point 2, Mean
  concentration at 2 h: 1.01 ng/mL
[2]; CD-1, mouse, plasma, po, 5 mg/kg, PO 5 mg/kg, time point 2, individual animals A-D
  concentration at 2 h: 1.47 ng/mL
[2]; CD-1, mouse, plasma, po, 5 mg/kg, PO 5 mg/kg
  concentration at 4 h: 3.64 ng/mL
[2]; CD-1, mouse, plasma, po, 5 mg/kg, PO 5 mg/kg, time point 6, individual animals A-D
  concentration at 6 h: 1.34 ng/mL
[2]; IV 1 mg/kg, CD-1 mice, Mean
  CL2: 159 mL/min/kg
  V2: 18.63 L/kg
[2]; [6]
  AUC(0-t): 96.033 ng·h/mL and 110.999 ng·h/mL and 102.243 ng·h/mL
  AUC(0-∞): 97.734 ng·h/mL and 116.619 ng·h/mL and 105.516 ng·h/mL
  CL2: 163.5 mL/min/kg and 170.53 mL/min/kg and 142.9 mL/min/kg and 158 mL/min/kg
  Cmax: 144.182 ng/mL and 163.492 ng/mL and 186.531 ng/mL
  MRT(0-∞): 1.295 h and 1.614 h and 1.176 h
  T1/2z: 1.16 h and 1.124 h and 1.81 h and 1.395 h
  V2: 16.427 L/kg and 16.598 L/kg and 22.401 L/kg and 19.076 L/kg
[2]; IV 1 mg/kg, time point 0.083, individual animals A-D, 1 mg/kg
  Plasma Concentration: 186.53 ng/mL and 248.44 ng/mL and 144.18 ng/mL
[2]; IV 1 mg/kg, time point 0.5, individual animals A-D, 1 mg/kg
  Plasma Concentration: 29.12 ng/mL and 31.99 ng/mL and 33.27 ng/mL
[2]; IV 1 mg/kg, time point 1, individual animals A-D, 1 mg/kg
  Plasma Concentration: 19.36 ng/mL and 19.24 ng/mL and 22.93 ng/mL
[2]; IV 1 mg/kg, time point 2, individual animals A-D, 1 mg/kg
  Plasma Concentration: 8.73 ng/mL and 9.58 ng/mL and 12.30 ng/mL
[2]; IV 1 mg/kg, time point 4, individual animals A-D, 1 mg/kg
  Plasma Concentration: 8.09 ng/mL and 4.47 ng/mL and 3.14 ng/mL and 3.60 ng/mL
[2]; IV 1 mg/kg, time point 6, individual animals A-D, 1 mg/kg
  Plasma Concentration: 1.81 ng/mL and 3.23 ng/mL and 1.77 ng/mL
[2]; IV 1 mg/kg, time point 8, individual animals A-D
  Plasma Concentration: BLQ
[2]; IV 1 mg/kg, time point 24, individual animals A-D
  Plasma Concentration: BLQ
[2]; IV, mice
  Volume of distribution relative to total body water: 26 fold
[2]; PO 5 mg/kg, time point 0.083, individual animals A-D, 5 mg/kg
  Plasma Concentration: 2.19 ng/mL and BLQ (2×)
[2]; PO 5 mg/kg, time point 0.35, individual animals A-D, 5 mg/kg
  Plasma Concentration: BLQ
[2]; PO 5 mg/kg, time point 0.5, individual animals A-D
  Plasma Concentration: BLQ
[2]; PO 5 mg/kg, time point 1, individual animals A-D
  Plasma Concentration: BLQ
[2]; PO 5 mg/kg, time point 2, individual animals A-D, 5 mg/kg
  Plasma Concentration: 1.00 ng/mL and BLQ (2×)
[2]; PO 5 mg/kg, time point 4, individual animals A-D, 5 mg/kg
  Plasma Concentration: 6.06 ng/mL and 1.90 ng/mL and 1.22 ng/mL and 5.39 ng/mL
[2]; PO 5 mg/kg, time point 6, individual animals A-D, 5 mg/kg
  Plasma Concentration: BLQ
[2]; PO 5 mg/kg, time point 8, individual animals A-D
  Plasma Concentration: BLQ
[2]; PO 5 mg/kg, time point 24, individual animals A-D
  Plasma Concentration: BLQ
[2]; mouse, plasma, IV 1 mg/kg, CD-1 mice, Mean, read-out: T1/2z (plasma half-life) (converted)
  half-life: 1.37 h
[2]; mouse, plasma, PO 5 mg/kg vs IV 1 mg/kg, CD-1 mice
  bioavailability: < 1%
10 Ser-Thr kinases
  Inhibition of 10 structurally diverse Ser-Thr kinases: did not cause any significant inhibition
TrkC
  IC50: 1.8 nM
[3]
  IC50: ~2500 nM
hERG
  % inhibition of tail current: 50.4%
